Results from US20240059644A1, “COMPOUND, COMPOSITION, BIOTISSUE EMBRITTLEMENT AGENT, BIOTISSUE SURFACE DETACHMENT METHOD, AND BIOTISSUE DETACHMENT KIT” (SANYO CHEMICAL INDUSTRIES, LTD., priority 2020, published 2024).

What was measured:
proximal large intestine = assay: Evaluation 1 of in vivo epithelial detachment effect; design: species or system mice (C57B6/j); details: 8 mL at 50° C. over two minutes, once
Text: A longitudinal 1-cm abdominal midline incision was made, and the proximal large intestine was exposed to the outside of the abdominal cavity. A small incision was made in the proximal large intestine 1 cm anal side from the cecum, and a catheter was inserted toward the anal. […] A small incision was made 1 cm anal side from the catheter insertion site, and another catheter was inserted toward the oral side. These two catheters allowed perfusion of the 1-cm-long intestinal tract. The catheters were each fixed with a thread from the outside of the intestinal tract, together with the vasculature, to cut off the blood flow in the 1-cm-long intestinal tract sandwiched between the two catheters.
Immediately after the injection of the biological tissue embrittling agents, 25 mL of Dulbecco's phosphate-buffered saline (without Ca and Mg) was continuously injected three times each over 45 seconds, whereby the crypts were detached. Then, 20 mL of Dulbecco's Modified Eagle's Medium, high glucose, (Sigma-Aldrich Cat #D5796) was injected to antagonize the biological tissue embrittling agents. […] The large intestine was longitudinally cut and flat opened, and was imaged with a fluorescent stereo microscope (Leica M165 FC) and an all-in-one fluorescence microscope (KEYENCE BZ-X800). The images were analyzed with ImageJ and the detached area was measured. […]

[1] = tested on: minced distal large intestine tissue (crypts); assay: Evaluation 2 of in vitro crypt isolation effect; assay type: cell-based, mice (C57B6/j); details: 37° C. 30 minutes
Experimental: Thereby, the crypts were isolated. […] Thereby, the tissue was fixed. A 50-μL portion was sampled therefrom and dropped onto dishes, and the number of crypts contained was counted using an optical microscope. The number of crypts was counted three times for each concentration, and the average was calculated therefrom.

[2] = tested on: large intestine tissue pieces (crypts); assay: Evaluation 1 of in vitro crypt isolation effect; assay type: cell-based, mice (C57B6/j); details: 37° C. 30 minutes
Experimental: Eight-week-old male mice (C57B6/j, CLEA Japan, Inc.) were sacrificed by cervical dislocation and the whole large intestine was removed. […] The intestinal tract was longitudinally opened and 5-mm-long tissue pieces were obtained. The tissue pieces were placed in 1.5-mL microtubes each containing 1 mL of Hank's balanced salt solution. The tissue pieces were washed by stirring for 10 minutes with a microtube mixer (MT-400 available from TOMY SEIKO CO., LTD.). After washing, the tissue pieces were transferred to other 1.5-mL microtubes each containing 1 mL of Hank's balanced salt solution, and washed in the same manner.
The tissue pieces were transferred to 1.5-mL microtubes containing the compositions (C-1) to (C-6) and the comparative compositions (C′-1) to (C′-7) each in an amount of 1 mL and were allowed to stand at 37° C. for 30 minutes.
After 30 minutes, the tissue pieces were transferred to other 1.5-mL microtubes each containing 1 mL of Hank's balanced salt solution and stirred for five minutes with a microtube mixer. Thereby, the crypts were isolated. […] Thereby, the tissue was fixed. A 50-μL portion was sampled therefrom and dropped onto dishes, and the number of crypts contained was counted using an optical microscope. The number of crypts was counted three times for each concentration, and the average was calculated therefrom.
The presence of one or more crypts was considered that a sufficient embrittlement effect was obtained.

beagle dogs = details: Ca-EDTA compared with Ca-DTPA; cited from earlier work

SMILES | Evaluation 1 of epithelial detachment effect Detached area (proximal large intestine; 230 mM, agents (M-1), (M′-2)) [mm^2] | Evaluation 1 of epithelial detachment effect Detached area (proximal large intestine; 500 mM, agent (M′-3)) [mm^2] | Number of crypts ([1]; 3 mM, compositions (C-7) to (C-10), (C′-8)) | Number of crypts ([1]; 10 mM, compositions (C-11) to (C-14), (C′-9)) | Number of crypts ([2]; 2 mM, compositions (C-1), (C′-2)) | Number of crypts ([2]; 8 mM, compositions (C-2), (C′-3)) | Number of crypts ([2]; 16 mM, compositions (C-3), (C′-4)) | Number of crypts ([2]; 32 mM, compositions (C-4), (C′-5)) | Number of crypts ([2]; 64 mM, compositions (C-5), (C′-6)) | Number of crypts ([2]; 128 mM, compositions (C-6), (C′-7)) | safety of intravenous administration for one month (beagle dogs)
O=C([O-])CN(CCN(CC(=O)O)CC(=O)O)CC(=O)[O-].[Na+].[Na+] [(Z′-1), disodium ethylenediaminetetraacetate] | 30.2 | 66.0 | 108.89 | 169.56 | 48.67 | 156.33 | 140 | 129.33 | 115.33 | 95.67 | 
O=C([O-])CN(CCN(CC(=O)[O-])CC(=O)[O-])CCN(CC(=O)[O-])CC(=O)[O-].[Ca+2].[Na+].[Na+].[Na+] [Ca-DTPA] |  |  |  |  |  |  |  |  |  |  | no significant difference in safety
O=C(O)CN(CCN(CC(=O)O)CC(=O)O)CC(=O)O.[Ca] [Ca-EDTA] |  |  |  |  |  |  |  |  |  |  | no significant difference in safety
